Data: US20250129021A1, “SMALL MOLECULE PROTEIN SYNTHESIS MODULATORS” (Interdict Bio, Inc., priority 2023, published 2025)
pIC50: −log10 of the molar value. Structures can show the parent of a compound that is named as a salt.

Assays:
Type in all cases: biochemical
Details in all cases: HeLa S3 lysate, sfGFP/mCherry ratio, 2 hrs at 30° C.
[1] = system: MYC; assay: In vitro transcription-translation (IVTT) assay, MYC reporter
Outline: (§1)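 Reporter: mCherry, P2A, then 3×FLAG-target peptide-sfGFP fusion, IRES-initiated; HeLa S3 lysate IVTT; cpd dilutions 30 μM−0.1 μM half-log in 100% DMSO (dilution-plate conc); DNA added last; 2 h, 30° C; PBS quench.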

[2] = system: KRAS G12D; assay: In vitro transcription-translation (IVTT) assay, KRAS G12D reporter
Text: (§2) All reporter constructs have been cloned into the pT7CFE1-CHis plasmid (ThermoFisher #88860) using Gibson assembly procedures (NEB #E2611L). The parental pT7CFE1-CHis plasmid contains an EMCV IRES at the 5′UTR for translation initiation, a multiple-cloning site (MCS) for gene insertion, an optional C-terminal His-epitope tag, and polyA sequence in the 3′UTR to regulate mRNA stability. All reporters are designed to be inserted at the MCS to include a red fluorescent protein (mCherry), P2A self-cleaving peptide which releases the preceding mCherry protein product, and a fusion open reading frame containing a 3×FLAG epitope, a peptide sequence of interest (TEST), and green fluorescent protein (sfGFP).
(§3) Construct Plasmid Preparation: All plasmids are isolated from MACH1 cells (ThermoFisher) grown overnight in ampicillin-containing luria broth, and purified using ZymoPure Express Plasmid Midiprep Kit (Zymo Research). Constructs are sequenced verified and diluted to a working concentration of 110 ng/μL.
(§4) HeLa S3 Lysate Preparation: HeLa S3 cell pellets are acquired from Ipracell/Ipratech (Belgium) and shipped as 4 mL frozen cell pellets on dry ice for storage at −80° C. until use. The procedure for lysate preparation is as follows. Prepare 1× Lysis Buffer, cold and stored on ice:
(§5) Each preparation takes 8 cell pellets (4 ml packed volume each, approximately 1.0×10^9 cells per pellet). Thaw cell pellets from −80° C. on ice for 90 mins. Lay pellets horizontally on top of the ice and rotate every 30 mins to ensure even thawing. Once thawed, add 4 mL of cold lysis buffer to each pellet, and using a serological pipet, gently pipet up and down to break up clumps. Incubate resuspended cells in ice for an additional 30 mins (plunged into ice). During 30 min incubation, rinse and RNase-zap (Ambion) glass dounces (use loose pestle “A”), gently dry and place on ice until needed. Prepare RNase-free Eppendorf tubes for spinning and for batch storage. Add batch labels to 1.5-1.7 mL RNase-free microcentrifuge tubes (labeling scheme below). Each batch will have an extra 1.5-1.7 mL RNase-free microcentrifuge tube for 40 μL of lysate, label the top of this tube (labeling scheme below). After 30 min incubation, transfer all 8 mL of cell pellet to dounce. Cell lysis is complete after douncing 100 times. Aliquot cell lysis into 1.5-1.7 mL temporary-microcentrifuge tubes. Place tubes in centrifuge with “fins” out, and spin at 1,200×g for 5 mins. After the first spin use a 1 mL pipet to resuspend each tube and repeat spin. This acts as an additional lysis step, is more vigorous and increases lysate yield. During second spin get liquid N2 and a fresh conical tube on ice. After spin is complete, transfer supernatant (lysate) from microcentrifuge tubes into the 50 mL conical tube and keep on ice. Repeat steps 10-14 for all other cell pellets until completed. Once all cell lysate has been transferred to the 50 mL conical tube pipet to mix so the solution is homogenous. Transfer 1 mL of lysate into batch-labeled microcentrifuge tubes and flash freeze in liquid nitrogen. Be sure to pipet up and down to mix throughout transfer step. Place all tubes in the […] for long-term storage.
(§6) In vitro transcription-translation assay setup: Each assay includes a master mix containing lysate and shared components, a 96-well plate containing compound titrations for testing, a 96-well DNA plate with reporter constructs to be tested, 96-well skirted PCR plates, and 96-well flat-bottom, black, fluorescent assay plates. […]

[3] = system: ALK; assay: In vitro transcription-translation (IVTT) assay, ALK reporter
Text: as §2, §3, §4, §5, §6

[4] = system: CCND1; assay: In vitro transcription-translation (IVTT) assay, CCND1 reporter
Outline: as §1

[5] = system: MCL-1; assay: In vitro transcription-translation (IVTT) assay, MCL-1 reporter
Outline: as §1

Row | SMILES | pIC50 [1] | pIC50 [2] | pIC50 [3] | pIC50 [4] | pIC50 [5]
1 | COc1ccc(C[C@H]2NC[C@H](O)[C@H]2OC(=O)NCCNCCOC(C)C)cc1 [V187640, (2R,3S,4S)-4-hydroxy-2-[(4-methoxyphenyl)methyl]pyrrolidin-3-yl N-{2-[(2-isopropoxyethyl)amino]ethyl}carbamate; trifluoroacetic acid] | < 4.52 | < 4.52 |  |  | 
2 | COc1ccc(C[C@H]2NC[C@H](O)[C@H]2OC(=O)NCc2cn(-c3cc4ccc(O)cc4oc3=O)nn2)cc1 [V187692, (2R,3S,4S)-4-hydroxy-2-[(4-methoxyphenyl)methyl]pyrrolidin-3-yl N-{[1-(7-hydroxy-2-oxochromen-3-yl)-1,2,3-triazol-4-yl]methyl}carbamate; trifluoroacetic acid] | < 4.52 |  | < 4.52 |  | 
3 | COc1ccc(C[C@H]2NC[C@H](O)[C@H]2OC(=O)NCCN2CC(O)(CN)C2)cc1 [V187581, (2R,3S,4S)-4-hydroxy-2-[(4-methoxyphenyl)methyl]pyrrolidin-3-yl N-{2-[3-(aminomethyl)-3-hydroxyazetidin-1-yl]ethyl}carbamate; trifluoroacetic acid] | 4.52 to 4.70 | < 4.52 |  |  | 
4 | COc1ccc(C[C@H]2NC[C@H](O)[C@H]2OC(=O)Nc2nc3ccccc3[nH]2)cc1 [V187754, (2R,3S,4S)-4-hydroxy-2-[(4-methoxyphenyl)methyl]pyrrolidin-3-yl N-(1H-1,3-benzodiazol-2-yl)carbamate] |  |  | > 5.00 |  | 
5 | COc1ccc(C[C@H]2NC[C@H](O)[C@H]2OC(=O)Nc2nc3ccccc3s2)cc1 [V187753, (2R,3S,4S)-4-hydroxy-2-[(4-methoxyphenyl)methyl]pyrrolidin-3-yl N-(1,3-benzothiazol-2-yl)carbamate; trifluoroacetic acid] | < 4.52 |  | < 4.52 |  | 
6 | COc1ccc(C[C@H]2NC[C@H](O)[C@H]2OC(=O)NCCNc2c(NCc3ccccc3)c(=O)c2=O)cc1 [V187519, (2R,3S,4S)-4-hydroxy-2-[(4-methoxyphenyl)methyl]pyrrolidin-3-yl N-(2-{[2-(benzylamino)-3,4-dioxocyclobut-1-en-1-yl]amino}ethyl)carbamate; trifluoroacetic acid] |  | < 4.52 |  |  | 
7 | COc1ccc(C[C@H]2NC[C@H](O)[C@H]2OC(=O)NCCN2CCC3(CCC3)C2)cc1 [V187641, (2R,3S,4S)-4-hydroxy-2-[(4-methoxyphenyl)methyl]pyrrolidin-3-yl N-(2-{6-azaspiro[3.4]octan-6-yl}ethyl)carbamate] |  |  | 4.70 to 5.00 |  | 
8 | COc1ccc(C[C@H]2NC[C@H](O)[C@H]2OC(=O)Nc2nnc(CN(Cc3ccccc3)Cc3ccccc3)s2)cc1 [V187551, (2R,3S,4S)-4-hydroxy-2-[(4-methoxyphenyl)methyl]pyrrolidin-3-yl N-{5-[(dibenzylamino)methyl]-1,3,4-thiadiazol-2-yl}carbamate] | < 4.52 | < 4.52 |  |  | 
9 | COc1ccc(C[C@H]2NC[C@H](O)[C@H]2OC(=O)NCCN2C[C@@H](NC(C)=O)[C@H](NC(C)=O)C2)cc1 [V187588, (2R,3S,4S)-4-hydroxy-2-[(4-methoxyphenyl)methyl]pyrrolidin-3-yl N-{2-[(3R,4R)-3,4-diacetamidopyrrolidin-1-yl]ethyl}carbamate; trifluoroacetic acid] | < 4.52 |  | < 4.52 |  | 
10 | CCN(CC)CCNC(=O)O[C@@H]1[C@@H](O)CN[C@@H]1Cc1ccc(OC)cc1 [V187384, (2R,3S,4S)-4-hydroxy-2-[(4-methoxyphenyl)methyl]pyrrolidin-3-yl N-[2-(diethylamino)ethyl]carbamate] | < 4.52 |  | 4.70 to 5.00 |  | 
11 | COc1ccc(C[C@H]2NC[C@H](O)[C@H]2OC(=O)NCCN2CC(C)(O)C2)cc1 [V187580, (2R,3S,4S)-4-hydroxy-2-[(4-methoxyphenyl)methyl]pyrrolidin-3-yl N-[2-(3-hydroxy-3-methylazetidin-1-yl)ethyl]carbamate; trifluoroacetic acid] | < 4.52 |  | 4.70 to 5.00 |  | 
12 | COc1ccc(C[C@H]2NC[C@H](O)[C@H]2OC(=O)NCCOCCN2CCNCC2)cc1 [V187626, (2R,3S,4S)-4-hydroxy-2-[(4-methoxyphenyl)methyl]pyrrolidin-3-yl N-{2-[2-(piperazin-1-yl)ethoxy]ethyl}carbamate; trifluoroacetic acid] | < 4.52 |  | 4.52 to 4.70 |  | 
13 | CNC(=O)O[C@@H]1[C@@H](O)CN[C@@H]1Cc1ccc(OC)cc1 [V187583, (2R,3S,4S)-4-hydroxy-2-[(4-methoxyphenyl)methyl]pyrrolidin-3-yl N-methylcarbamate; trifluoroacetic acid] |  |  | > 5.00 |  | 

Next, values leading:

Row | pIC50 [1] | pIC50 [2] | pIC50 [3] | pIC50 [4] | pIC50 [5] | SMILES
14 | 4.70 to 5.00 | 4.52 to 4.70 |  |  |  | COc1ccc(C[C@H]2NC[C@H](O)[C@H]2OC(=O)NCCNCCn2ccnc2)cc1 [V187637, (2R,3S,4S)-4-hydroxy-2-[(4-methoxyphenyl)methyl]pyrrolidin-3-yl N-(2-{[2-(imidazol-1-yl)ethyl]amino}ethyl)carbamate]
15 | 4.52 to 4.70 |  | > 5.00 |  |  | COc1ccc(C[C@H]2NC[C@H](O)[C@H]2OC(=O)NCCN)cc1 [V187575, (2R,3S,4S)-4-hydroxy-2-[(4-methoxyphenyl)methyl]pyrrolidin-3-yl N-(2-aminoethyl)carbamate; trifluoroacetic acid]
16 | 4.70 to 5.00 |  | > 5.00 |  |  | COc1ccc(C[C@H]2NC[C@H](O)[C@H]2OC(=O)NCc2nn[nH]n2)cc1 [V187534, (2R,3S,4S)-4-hydroxy-2-[(4-methoxyphenyl)methyl]pyrrolidin-3-yl N-(2H-1,2,3,4-tetrazol-5-ylmethyl) carbamate; trifluoroacetic acid]
17 | 4.70 to 5.00 | 4.52 to 4.70 |  | 4.52 to 4.70 |  | COc1ccc(C[C@H]2NC[C@H](O)[C@H]2OC(=O)NCCN2CC(O)(C#N)C2)cc1 [V187567, (2R,3S,4S)-4-hydroxy-2-[(4-methoxyphenyl)methyl]pyrrolidin-3-yl N-[2-(3-cyano-3-hydroxyazetidin-1-yl)ethyl]carbamate]
18 | 4.70 to 5.00 |  | > 5.00 |  |  | COc1ccc(C[C@H]2NC[C@H](O)[C@H]2OC(=O)Nc2nccs2)cc1 [V187752, (2R,3S,4S)-4-hydroxy-2-[(4-methoxyphenyl)methyl]pyrrolidin-3-yl N-(1,3-thiazol-2-yl)carbamate Hydrochloride]
19 | 4.70 to 5.00 |  | 4.52 to 4.70 |  |  | COc1ccc(C[C@H]2NC[C@H](O)[C@H]2OC(=O)NCCN2CC(O)C2)cc1 [V187579, (2R,3S,4S)-4-hydroxy-2-[(4-methoxyphenyl)methyl]pyrrolidin-3-yl N-[2-(3-hydroxyazetidin-1-yl)ethyl]carbamate; trifluoroacetic acid]
20 | > 5.00 |  | > 5.00 | > 5.00 | > 5.00 | COc1ccc(C[C@H]2NC[C@H](O)[C@H]2OC(=O)NCCCO)cc1 [V187585, (2R,3S,4S)-4-hydroxy-2-[(4-methoxyphenyl)methyl]pyrrolidin-3-yl N-(3-hydroxypropyl)carbamate]
21 | > 5.00 |  | 4.70 to 5.00 |  |  | COc1ccc(C[C@H]2NC[C@H](O)[C@H]2OC(=O)NCCN2CC[C@H](O)C2)cc1 [V187576, (2R,3S,4S)-4-hydroxy-2-[(4-methoxyphenyl)methyl]pyrrolidin-3-yl N-{2-[(3S)-3-hydroxypyrrolidin-1-yl]ethyl}carbamate trifluoroacetic acid salt]
22 | > 5.00 |  | > 5.00 | > 5.00 |  | COc1ccc(C[C@H]2NC[C@H](O)[C@H]2OC(=O)Nc2ncc[nH]2)cc1 [V187755, (2R,3S,4S)-4-hydroxy-2-[(4-methoxyphenyl)methyl]pyrrolidin-3-yl N-(1H-imidazol-2-yl)carbamate]
